# Source: article PMC5218480 (PLoS ONE, 2017)
# Test system: MV-4-11 cells
# Experiment: Gene expression microarray analysis (Affymetrix PrimeView) and GSEA
# Assay type: cell-based, human
# Design: RFU PODN (11730768_x_at) / Fold change /veh PODN (11730768_x_at) / RFU LINC00158 (11744669_a_at) / Fold change /veh LINC00158 (11744669_a_at) / RFU DUSP10 (11751237_a_at) / Fold change /veh DUSP10 (11751237_a_at) / RFU ID3 (11757404_x_at) / Fold change /veh ID3 (11757404_x_at) / RFU PLEKHG5 (11737974_s_at) / Fold change /veh PLEKHG5 (11737974_s_at) / RFU LRRC4B (11730491_at) / Fold change /veh LRRC4B (11730491_at) / RFU GIMAP4 (11747438_a_at) / Fold change /veh GIMAP4 (11747438_a_at) / RFU KRT8 (11758183_x_at) / Fold change /veh KRT8 (11758183_x_at) / RFU CNN1 (11734310_a_at) / Fold change /veh CNN1 (11734310_a_at) / RFU VPS37D (11726825_at) / Fold change /veh VPS37D (11726825_at) / RFU C10orf10 (11716522_x_at) / Fold change /veh C10orf10 (11716522_x_at) / RFU KIR2DL2 /// KIR2DL4 /// KIR2DL5A /// KIR2DL5B /// KIR2DS1 /// KIR2DS2 /// KIR2DS3 /// KIR2DS4 /// KIR3DL3 /// KIR3DL3 /// KIR3DS1 (11738374_at) / Fold change /veh KIR2DL2 /// KIR2DL4 /// KIR2DL5A /// KIR2DL5B /// KIR2DS1 /// KIR2DS2 /// KIR2DS3 /// KIR2DS4 /// KIR3DL3 /// KIR3DL3 /// KIR3DS1 (11738374_at) / RFU C1QL1 (11718748_at) / Fold change /veh C1QL1 (11718748_at) / RFU TMPRSS4 (11747572_a_at) / Fold change /veh TMPRSS4 (11747572_a_at) / RFU HAMP (11756126_x_at) / Fold change /veh HAMP (11756126_x_at) / RFU RNFT2 (11725882_a_at) / Fold change /veh RNFT2 (11725882_a_at) / RFU NR4A2 (11747474_a_at) / Fold change /veh NR4A2 (11747474_a_at) / RFU ABCC12 (11746883_a_at) / Fold change /veh ABCC12 (11746883_a_at) / RFU TMEM136 (11760407_x_at) / Fold change /veh TMEM136 (11760407_x_at) / RFU CLDN22 /// WWC2 (11732394_at) / Fold change /veh CLDN22 /// WWC2 (11732394_at) / RFU HLA-DPB1 (11760878_x_at) / Fold change /veh HLA-DPB1 (11760878_x_at) / RFU SPINT1 (11716480_a_at) / Fold change /veh SPINT1 (11716480_a_at) / RFU GAP43 (11754022_s_at) / Fold change /veh GAP43 (11754022_s_at) / RFU A4GNT (11735810_at) / Fold change /veh A4GNT (11735810_at) / RFU PRB3 (11715151_x_at) / Fold change /veh PRB3 (11715151_x_at) / RFU TUBB4B (11761932_at) / Fold change /veh TUBB4B (11761932_at) / RFU CAPN14 (11732068_a_at) / Fold change /veh CAPN14 (11732068_a_at) / RFU TMCC2 (11721928_a_at) / Fold change /veh TMCC2 (11721928_a_at) / RFU IRGQ (11745062_a_at) / Fold change /veh IRGQ (11745062_a_at) / RFU FAM174B (11720279_a_at) / Fold change /veh FAM174B (11720279_a_at) / RFU TMPRSS4 (11748680_a_at) / Fold change /veh TMPRSS4 (11748680_a_at) / RFU FAM212B (11763350_a_at) / Fold change /veh FAM212B (11763350_a_at) / RFU PLEKHG5 (11743358_a_at) / Fold change /veh PLEKHG5 (11743358_a_at) / RFU ZSCAN30 (11745921_a_at) / Fold change /veh ZSCAN30 (11745921_a_at) / RFU CMKLR1 (11741424_a_at) / Fold change /veh CMKLR1 (11741424_a_at) / RFU LOC101060620 /// MAPK8IP1 (11723275_at) / Fold change /veh LOC101060620 /// MAPK8IP1 (11723275_at) / RFU SPTSSB (11747773_x_at) / Fold change /veh SPTSSB (11747773_x_at) / RFU PRSS12 (11739890_at) / Fold change /veh PRSS12 (11739890_at) / RFU BIN1 (11741810_x_at) / Fold change /veh BIN1 (11741810_x_at) / RFU WNT11 (11732464_a_at) / Fold change /veh WNT11 (11732464_a_at) / RFU C10orf10 (11716521_a_at) / Fold change /veh C10orf10 (11716521_a_at) / RFU C5orf56 (11738089_at) / Fold change /veh C5orf56 (11738089_at) / RFU CYB561 (11721691_x_at) / Fold change /veh CYB561 (11721691_x_at) / RFU ANKRD19P (11752326_a_at) / Fold change /veh ANKRD19P (11752326_a_at) / RFU OR2T12 /// OR2T33 /// OR2T8 (11738714_s_at) / Fold change /veh OR2T12 /// OR2T33 /// OR2T8 (11738714_s_at) / RFU VCAN (11748164_a_at) / Fold change /veh VCAN (11748164_a_at) / RFU JSRP1 (11732532_at) / Fold change /veh JSRP1 (11732532_at) / RFU KRTAP10-11 (11738290_x_at) / Fold change /veh KRTAP10-11 (11738290_x_at) / RFU MYO3A (11730013_a_at) / Fold change /veh MYO3A (11730013_a_at) / RFU EBF3 (11725865_a_at) / Fold change /veh EBF3 (11725865_a_at) / RFU CAMK2N1 (11719241_x_at) / Fold change /veh CAMK2N1 (11719241_x_at) / RFU C5orf56 (11738088_a_at) / Fold change /veh C5orf56 (11738088_a_at) / RFU OLFML3 (11715873_a_at) / Fold change /veh OLFML3 (11715873_a_at) / RFU LOC100653217 /// NTM (11731650_a_at) / Fold change /veh LOC100653217 /// NTM (11731650_a_at) / RFU MAPK11 (11762145_a_at) / Fold change /veh MAPK11 (11762145_a_at) / RFU FIZ1 (11724087_x_at) / Fold change /veh FIZ1 (11724087_x_at) / RFU OASL (11726364_x_at) / Fold change /veh OASL (11726364_x_at) / RFU SOX15 (11748057_x_at) / Fold change /veh SOX15 (11748057_x_at) / RFU CD79A (11719716_a_at) / Fold change /veh CD79A (11719716_a_at) / RFU HIST1H1D (11736915_at) / Fold change /veh HIST1H1D (11736915_at) / RFU CASKIN2 (11723855_a_at) / Fold change /veh CASKIN2 (11723855_a_at) / RFU LOC730098 (11760151_x_at) / Fold change /veh LOC730098 (11760151_x_at) / RFU OR4N2 (11742367_at) / Fold change /veh OR4N2 (11742367_at) / RFU PRRT2 (11749266_a_at) / Fold change /veh PRRT2 (11749266_a_at) / RFU SNX32 (11753110_a_at) / Fold change /veh SNX32 (11753110_a_at) / RFU CDHR5 (11726645_a_at) / Fold change /veh CDHR5 (11726645_a_at) / RFU RCAN1 (11760418_a_at) / Fold change /veh RCAN1 (11760418_a_at) / RFU FAM167A (11723789_a_at) / Fold change /veh FAM167A (11723789_a_at) / RFU FAM26E (11764081_at) / Fold change /veh FAM26E (11764081_at) / RFU ISYNA1 (11749810_s_at) / Fold change /veh ISYNA1 (11749810_s_at) / RFU ACY1 (11761880_at) / Fold change /veh ACY1 (11761880_at) / RFU 11764098_at / Fold change /veh 11764098_at / RFU SAMD14 (11745864_x_at) / Fold change /veh SAMD14 (11745864_x_at) / RFU NPB (11741838_a_at) / Fold change /veh NPB (11741838_a_at) / RFU TMPRSS6 (11731388_a_at) / Fold change /veh TMPRSS6 (11731388_a_at) / RFU KRTAP10-2 (11738614_at) / Fold change /veh KRTAP10-2 (11738614_at) / RFU ARHGAP8 /// PRR5-ARHGAP8 (11727945_x_at) / Fold change /veh ARHGAP8 /// PRR5-ARHGAP8 (11727945_x_at) / RFU KRTAP5-7 /// NADSYN1 (11734609_at) / Fold change /veh KRTAP5-7 /// NADSYN1 (11734609_at) / RFU RASL12 (11751679_a_at) / Fold change /veh RASL12 (11751679_a_at) / RFU CDKN2B (11736163_a_at) / Fold change /veh CDKN2B (11736163_a_at) / RFU PRF1 (11729649_at) / Fold change /veh PRF1 (11729649_at) / RFU, ZNF638 /// ZNF638-IT1 / Fold change vs veh, ZNF638 /// ZNF638-IT1 / RFU, PANK3 / Fold change vs veh, PANK3 / RFU, SH3YL1 / Fold change vs veh, SH3YL1 / RFU, ZEB2 / Fold change vs veh, ZEB2 / RFU, NRIP1 / Fold change vs veh, NRIP1 / RFU, PTTG1IP / Fold change vs veh, PTTG1IP / RFU, CAPN2 / Fold change vs veh, CAPN2 / RFU, MED14 / Fold change vs veh, MED14 / RFU, SNORA58 / Fold change vs veh, SNORA58 / RFU, C1orf63 / Fold change vs veh, C1orf63 / RFU, LRRFIP1 / Fold change vs veh, LRRFIP1 / RFU, NDUFAF7 / Fold change vs veh, NDUFAF7 / RFU, SLC12A2 / Fold change vs veh, SLC12A2 / RFU, IBTK / Fold change vs veh, IBTK / RFU, ESF1 / Fold change vs veh, ESF1 / Fold change vs veh, TMEM50B / RFU, TAOK1 / Fold change vs veh, TAOK1 / RFU, ACBD3 / Fold change vs veh, ACBD3 / RFU, TMA16 / Fold change vs veh, TMA16 / RFU, RWDD3 / Fold change vs veh, RWDD3 / RFU, BCAT1 / Fold change vs veh, BCAT1 / RFU, EDEM3 / Fold change vs veh, EDEM3 / RFU, TMEM33 / Fold change vs veh, TMEM33 / RFU, WDR75 / Fold change vs veh, WDR75 / RFU, AHCTF1 / Fold change vs veh, AHCTF1 / RFU, TFRC / Fold change vs veh, TFRC / RFU, ZDHHC17 / Fold change vs veh, ZDHHC17 / RFU, NOM1 / Fold change vs veh, NOM1 / RFU, ARL8B / Fold change vs veh, ARL8B / RFU, ZBTB11 / Fold change vs veh, ZBTB11 / RFU, TAMM41 / Fold change vs veh, TAMM41 / RFU, KIAA1704 /// LOC100996395 / Fold change vs veh, KIAA1704 /// LOC100996395 / RFU, ING1 / Fold change vs veh, ING1 / RFU, TRMT61B / Fold change vs veh, TRMT61B / RFU, FUBP3 / Fold change vs veh, FUBP3 / RFU, TP53 / Fold change vs veh, TP53 / RFU, TNKS2 / Fold change vs veh, TNKS2 / RFU, ZFP14 / Fold change vs veh, ZFP14 / RFU, ACTR2 / Fold change vs veh, ACTR2 / RFU, PPP3R1 / Fold change vs veh, PPP3R1 / RFU, PIK3R1 / Fold change vs veh, PIK3R1 / RFU, HNRNPA1 / Fold change vs veh, HNRNPA1 / RFU, RNF170 / Fold change vs veh, RNF170 / RFU, ZNF28 / Fold change vs veh, ZNF28 / RFU, RNGTT / Fold change vs veh, RNGTT / RFU, OGT / Fold change vs veh, OGT / RFU, BRD1 / Fold change vs veh, BRD1 / RFU, MARS / Fold change vs veh, MARS / RFU, ZNF655 / Fold change vs veh, ZNF655 / RFU, FAHD1 / Fold change vs veh, FAHD1 / RFU, BDP1 / Fold change vs veh, BDP1 / RFU, LRRCC1 / Fold change vs veh, LRRCC1 / RFU, ARID1A / Fold change vs veh, ARID1A / RFU, ZNF146 / Fold change vs veh, ZNF146 / RFU, ZNF330 / Fold change vs veh, ZNF330 / RFU, GPN3 / Fold change vs veh, GPN3 / RFU, C9orf123 / Fold change vs veh, C9orf123 / RFU, N4BP2L2 / Fold change vs veh, N4BP2L2 / RFU, ARFIP1 / Fold change vs veh, ARFIP1 / RFU, FAM179B / Fold change vs veh, FAM179B / RFU, BCL10 / Fold change vs veh, BCL10 / RFU, UHRF1BP1L / Fold change vs veh, UHRF1BP1L / RFU, BET1 / Fold change vs veh, BET1 / RFU, CNOT2 / Fold change vs veh, CNOT2 / RFU, ZNF268 / Fold change vs veh, ZNF268 / Fold change vs veh, ZNF507 / RFU, DGCR2 / Fold change vs veh, DGCR2 / RFU, WDSUB1 / Fold change vs veh, WDSUB1 / Fold change vs veh, HSP90B1 /// MIR3652 / RFU, ADSS / Fold change vs veh, ADSS / RFU, GK / Fold change vs veh, GK / RFU, ZNF148 / Fold change vs veh, ZNF148 / RFU, TAF9 / Fold change vs veh, TAF9 / RFU, SLC1A5 / Fold change vs veh, SLC1A5 / RFU, SLMO2 / Fold change vs veh, SLMO2 / RFU, ABCC4 / Fold change vs veh, ABCC4 / RFU, LOC101060439 /// RAP1B / Fold change vs veh, LOC101060439 /// RAP1B / RFU, RFX7 / Fold change vs veh, RFX7 / RFU, GTPBP10 / Fold change vs veh, GTPBP10 / RFU, CNEP1R1 / Fold change vs veh, CNEP1R1 / RFU, BIVM-ERCC5 /// ERCC5 / Fold change vs veh, BIVM-ERCC5 /// ERCC5 / RFU, ILF3 / Fold change vs veh, ILF3 / RFU 11762660_at / Fold change /veh 11762660_at / RFU VCAN (11757783_s_at) / Fold change /veh VCAN (11757783_s_at) / RFU DDX43 (11728927_at) / Fold change /veh DDX43 (11728927_at) / RFU KRT8 (11758188_x_at) / Fold change /veh KRT8 (11758188_x_at) / RFU NKD1 (11759106_at) / Fold change /veh NKD1 (11759106_at) / RFU SRD5A1 (11742802_a_at) / Fold change /veh SRD5A1 (11742802_a_at) / RFU TPSAB1 /// TPSB2 (11721975_s_at) / Fold change /veh TPSAB1 /// TPSB2 (11721975_s_at) / RFU GSTM3 (11746129_a_at) / Fold change /veh GSTM3 (11746129_a_at) / RFU IL23R (11737362_x_at) / Fold change /veh IL23R (11737362_x_at) / RFU TMEM51 (11727254_a_at) / Fold change /veh TMEM51 (11727254_a_at) / RFU PIWIL2 (11732686_x_at) / Fold change /veh PIWIL2 (11732686_x_at) / RFU ORM1 (11744905_x_at) / Fold change /veh ORM1 (11744905_x_at) / RFU CCDC152 (11743942_at) / Fold change /veh CCDC152 (11743942_at) / RFU ECM1 (11717891_a_at) / Fold change /veh ECM1 (11717891_a_at) / RFU IL23R (11748794_a_at) / Fold change /veh IL23R (11748794_a_at) / RFU TNFAIP8L3 (11732012_x_at) / Fold change /veh TNFAIP8L3 (11732012_x_at) / RFU MBOAT4 (11741988_at) / Fold change /veh MBOAT4 (11741988_at) / RFU 11764193_at / Fold change /veh 11764193_at / RFU TMEM53 (11763286_at) / Fold change /veh TMEM53 (11763286_at) / RFU MAGEB2 (11727129_at) / Fold change /veh MAGEB2 (11727129_at) / RFU TMEM200A (11744735_a_at) / Fold change /veh TMEM200A (11744735_a_at) / RFU CCDC152 (11751479_a_at) / Fold change /veh CCDC152 (11751479_a_at) / RFU FAM211A (11726209_a_at) / Fold change /veh FAM211A (11726209_a_at) / RFU RGS16 (11746705_a_at) / Fold change /veh RGS16 (11746705_a_at) / RFU VCAN (11755009_s_at) / Fold change /veh VCAN (11755009_s_at) / RFU RHOB (11743442_s_at) / Fold change /veh RHOB (11743442_s_at) / RFU RGS16 (11720943_a_at) / Fold change /veh RGS16 (11720943_a_at) / RFU RGS16 (11720944_at) / Fold change /veh RGS16 (11720944_at) / RFU, VPS4B / Fold change vs veh, VPS4B / RFU, CREB1 / Fold change vs veh, CREB1 / RFU, DNAJC13 / Fold change vs veh, DNAJC13 / RFU, GNAQ / Fold change vs veh, GNAQ / RFU, CDK5R1 / Fold change vs veh, CDK5R1 / RFU, ZRANB3 / Fold change vs veh, ZRANB3 / RFU, CUL4A / Fold change vs veh, CUL4A / RFU, CCNY / Fold change vs veh, CCNY / RFU, UFL1 / Fold change vs veh, UFL1 / RFU, COG3 / Fold change vs veh, COG3 / RFU, DIAPH2 / Fold change vs veh, DIAPH2 / RFU, SKA2 / Fold change vs veh, SKA2 / RFU, AFF3 / Fold change vs veh, AFF3 / RFU, LMF1 / Fold change vs veh, LMF1 / RFU, IPO11 / Fold change vs veh, IPO11 / RFU, DFFB / Fold change vs veh, DFFB / RFU, FOXP1 / Fold change vs veh, FOXP1 / RFU, CARD8 / Fold change vs veh, CARD8 / RFU, STRN3 / Fold change vs veh, STRN3 / RFU, ADK / Fold change vs veh, ADK / RFU, RASSF2 / Fold change vs veh, RASSF2 / RFU, WIPF1 / Fold change vs veh, WIPF1 / RFU, LARP1B / Fold change vs veh, LARP1B / RFU, RASA1 / Fold change vs veh, RASA1 / RFU, RB1 / Fold change vs veh, RB1 / RFU, PPFIA1 / Fold change vs veh, PPFIA1 / RFU, MAT2A / Fold change vs veh, MAT2A / RFU, CCT5 / Fold change vs veh, CCT5 / RFU, WDR92 / Fold change vs veh, WDR92 / RFU, CUX1 / Fold change vs veh, CUX1 / RFU, TTC7A / Fold change vs veh, TTC7A / RFU, TMEM135 / Fold change vs veh, TMEM135 / RFU, DEPTOR / Fold change vs veh, DEPTOR / RFU, CPM / Fold change vs veh, CPM / RFU, DNAJB6 / Fold change vs veh, DNAJB6 / RFU, CACNA2D3 / Fold change vs veh, CACNA2D3 / RFU, DTX4 / Fold change vs veh, DTX4 / RFU, TFCP2 / Fold change vs veh, TFCP2 / RFU, GMCL1 /// GMCL1P1 / Fold change vs veh, GMCL1 /// GMCL1P1 / RFU, AEBP2 / Fold change vs veh, AEBP2 / RFU, SNHG1 /// SNORD22 /// SNORD25 /// SNORD26 /// SNORD27 /// SNORD28 /// SNORD29 /// SNORD31 / Fold change vs veh, SNHG1 /// SNORD22 /// SNORD25 /// SNORD26 /// SNORD27 /// SNORD28 /// SNORD29 /// SNORD31 / Fold change (Aza/veh), C12orf56 (ProbeSet 11735607_a_at) / Fold change (ACY-1035/veh), C12orf56 (ProbeSet 11735607_a_at) / Fold change (Aza/veh), FGFR1OP (ProbeSet 11751329_s_at) / Fold change (ACY-1035/veh), FGFR1OP (ProbeSet 11751329_s_at) / Fold change (Aza/veh), VPS36 (ProbeSet 11739960_a_at) / Fold change (ACY-1035/veh), VPS36 (ProbeSet 11739960_a_at) / RFU SYPL1 (11715823_x_at) / Fold change /veh SYPL1 (11715823_x_at) / RFU IGFBP7 (11715501_s_at) / Fold change /veh IGFBP7 (11715501_s_at) / RFU REEP3 (11722064_at) / Fold change /veh REEP3 (11722064_at) / RFU IGLL1 (11728026_x_at) / Fold change /veh IGLL1 (11728026_x_at): dose or concentration left out as unconfirmed
# Details: MV-4-11 cells, 48 hours
smiles,measurement,value
Nc1ccc(-c2cccs2)cc1NC(=O)c1ccc2c(c1)cc(C1CC1)n2CCN1CCOCC1 [ACY-1035],Fold change /veh OR4N2 (11742367_at),1.06
